Assay results reported in BigSolDB 2.1.

## CCOc1ccc(C2NC(=O)NC=C2C(=O)c2cc(OC)c(OC)c(OC)c2)cc1 (stereo not given)
In DMSO, 298.15 K
  solubility (mole fraction): 0.00547
In DMSO, 303.15 K
  solubility (mole fraction): 0.0065
In DMSO, 308.15 K
  solubility (mole fraction): 0.00754
In DMSO, 313.15 K
  solubility (mole fraction): 0.00879
In DMSO, 318.15 K
  solubility (mole fraction): 0.00996
In PEG-400, 298.15 K
  solubility (mole fraction): 0.00521
In PEG-400, 303.15 K
  solubility (mole fraction): 0.00675
In PEG-400, 308.15 K
  solubility (mole fraction): 0.00831
In PEG-400, 313.15 K
  solubility (mole fraction): 0.0103
In PEG-400, 318.15 K
  solubility (mole fraction): 0.0121
In ethanol, 298.15 K
  solubility (mole fraction): 0.000294
In ethanol, 303.15 K
  solubility (mole fraction): 0.000402
In ethanol, 308.15 K
  solubility (mole fraction): 0.000516
In ethanol, 313.15 K
  solubility (mole fraction): 0.000654
In ethanol, 318.15 K
  solubility (mole fraction): 0.000802
In ethyl acetate, 298.15 K
  solubility (mole fraction): 0.00143
In ethyl acetate, 303.15 K
  solubility (mole fraction): 0.00174
In ethyl acetate, 308.15 K
  solubility (mole fraction): 0.00222
In ethyl acetate, 313.15 K
  solubility (mole fraction): 0.00286
In ethyl acetate, 318.15 K
  solubility (mole fraction): 0.00345
In ethylene glycol, 298.15 K
  solubility (mole fraction): 0.000397
In ethylene glycol, 303.15 K
  solubility (mole fraction): 0.000543
In ethylene glycol, 308.15 K
  solubility (mole fraction): 0.000697
In ethylene glycol, 313.15 K
  solubility (mole fraction): 0.000866
In ethylene glycol, 318.15 K
  solubility (mole fraction): 0.00107
In isopropanol, 298.15 K
  solubility (mole fraction): 0.000469
In isopropanol, 303.15 K
  solubility (mole fraction): 0.000619
In isopropanol, 308.15 K
  solubility (mole fraction): 0.000772
In isopropanol, 313.15 K
  solubility (mole fraction): 0.000958
In isopropanol, 318.15 K
  solubility (mole fraction): 0.00113
In methanol, 298.15 K
  solubility (mole fraction): 0.000252
In methanol, 303.15 K
  solubility (mole fraction): 0.000328
In methanol, 308.15 K
  solubility (mole fraction): 0.000407
In methanol, 313.15 K
  solubility (mole fraction): 0.00049
In methanol, 318.15 K
  solubility (mole fraction): 0.000577
In n-butanol, 298.15 K
  solubility (mole fraction): 0.000672
In n-butanol, 303.15 K
  solubility (mole fraction): 0.000859
In n-butanol, 308.15 K
  solubility (mole fraction): 0.00105
In n-butanol, 313.15 K
  solubility (mole fraction): 0.00125
In n-butanol, 318.15 K
  solubility (mole fraction): 0.00146
In propylene glycol, 298.15 K
  solubility (mole fraction): 0.000504
In propylene glycol, 303.15 K
  solubility (mole fraction): 0.000682
In propylene glycol, 308.15 K
  solubility (mole fraction): 0.00087
In propylene glycol, 313.15 K
  solubility (mole fraction): 0.00107
In propylene glycol, 318.15 K
  solubility (mole fraction): 0.00133
In sec-butanol, 298.15 K
  solubility (mole fraction): 0.00067
In sec-butanol, 303.15 K
  solubility (mole fraction): 0.000855
In sec-butanol, 308.15 K
  solubility (mole fraction): 0.00104
In sec-butanol, 313.15 K
  solubility (mole fraction): 0.00124
In sec-butanol, 318.15 K
  solubility (mole fraction): 0.00145
In transcutol, 298.15 K
  solubility (mole fraction): 0.00301
In transcutol, 303.15 K
  solubility (mole fraction): 0.00367
In transcutol, 308.15 K
  solubility (mole fraction): 0.00441
In transcutol, 313.15 K
  solubility (mole fraction): 0.00519
In transcutol, 318.15 K
  solubility (mole fraction): 0.00624
In water, 298.15 K
  solubility (mole fraction): 7.87e-06
In water, 303.15 K
  solubility (mole fraction): 1.09e-05
In water, 308.15 K
  solubility (mole fraction): 1.51e-05
In water, 313.15 K
  solubility (mole fraction): 2.02e-05
In water, 318.15 K
  solubility (mole fraction): 2.54e-05
